From patent publication US20160015786A1, “MOBILIZING AGENTS AND USES THEREFOR” (MATER MEDICAL RESEARCH INSTITUTE LIMITED, priority 2013, published 2016)

What was measured:
Assay type in all cases: in vivo, C57BL/6 mice
[1] = Spleen weight after mobilization treatment
Protocol: Additional HIF-α potentiating agents in the form of PHD inhibitors were tested for their ability to enhance mobilization induced by G-CSF. Compound A, Compound B or Compound C, were tested in male, 7 weeks-old C57BL/6 mice. Mice were injected twice daily sub-cutaneously with rhuG-CSF at a dose of 125 μg/kg per injection for four days. […]
(§1) At the end of treatment, blood was harvested by cardiac puncture, mice were sacrificed by cervical dislocation and spleens harvested. Femurs were removed, cleaned and the bone marrow was flushed with 1 mL PBS+10% newborn calf serum (NCS).

white blood cells = test: White blood cell number per mL of blood after mobilization treatment; conditions: Example 6: 20 mg/kg + G-CSF vs vehicle + G-CSF; FIG. 11
Protocol: (§2) Additional HIF-α potentiating agents in the form of PHD inhibitors were tested for their ability to enhance mobilization induced by G-CSF. Compound A, Compound B or Compound C, were tested in male, 7 weeks-old C57BL/6 mice. Mice were injected twice daily sub-cutaneously with rhuG-CSF at a dose of 125 μg/kg per injection for four days. Mice were gavaged with 20 mg/kg Compound A, Compound B, Compound C or vehicle control once daily for three days beginning on day 1 of the experiment.
as §1

[2] = system: colony-forming cells (CFCs); test: Mobilization of colony-forming cells (CFC/CFU) to blood and spleen, colony assays; conditions: for number of colony forming units mobilized to the spleen / total number (blood and spleen) of mobilized CFUs: Example 8: H and J 60 mg/kg, K 100 mg/kg
Protocol: Mobilization of colony-forming cells (CFCs) to the blood and spleen were measured (FIG. 1B).
This was divided into two experiments in which G-CSF was administered for 2 days in one experiment and 4 days in the other (FIG. 2). […] Mobilization of CFCs, phenotypic Lin^−CD41^−Sca1^+Kit^+ HSPCs and Lin^−CD41^− Sca1^+Kit^+CD48^−CD150^+ HSCs were measured in blood and spleens.
Additional HIF-α potentiating agents in the form of PHD inhibitors were tested for their ability to enhance mobilization induced by G-CSF.
as §1
The number of phenotypic hematopoietic stem and progenitor cells remaining in the bone marrow following treatment was measured by flow cytometry using antibodies specific for lineage markers (CD3, CD5, CD45R/B220, F4/80, Gr1, CD41, Ter119), Sca-1, Kit, CD48 and CD150. Similarly, the number of phenotypic hematopoietic stem cells mobilized into the blood and spleen were measured. Colony assays were also performed on blood and spleen to determine the number of colony forming cells per mL of blood and per spleen. […] Levels of significance for differences were calculated using the Student's t-test.
All procedures were approved by the animal experimentation ethics committee of the University of Queensland. […] Plerixafor (AMD3100 octohydrochloride, Tocris Bioscience, Bristol, UK) was injected intraperitoneally as a single 16 mg/kg dose corresponding to 10 mg/kg of AMD3100 base. Tissues were harvested 1 h after Plerixafor administration. […] Control mice were injected with an equivalent volume of saline. At specified time-points, mice were anesthetized with isoflurane before cardiac puncture to harvest blood. Mice were then euthanized by cervical dislocation and BM and bones harvested.
Optimal concentrations of mouse IL-3, IL-6 and soluble kit ligand were added as conditioned media from stably transfected BHK cell lines. Colonies were counted after 7 days culture at 37° C. in a humidified incubator containing 5% CO2.

[3] = system: hematopoietic stem and progenitor cells; test: Phenotypic HSCs, HSPCs and myeloid progenitors in blood, spleen and bone marrow by flow cytometry; conditions: for mobilization of myeloid progenitors (LKS−) to the blood / increase in mobilization of myeloid progenitors (LKS−) to the spleen / increase in number of HSPCs (LSK48+ and LSK) mobilized to the spleen / increase in number of phenotypic HSCs (LSK48−150+) mobilized to the spleen: Example 6: 20 mg/kg + G-CSF vs vehicle + G-CSF; for increase in mobilization of myeloid progenitors (LKS−) to the spleen / increase in number of HSPCs (LSK48+ and LSK) mobilized to the spleen / increase in number of phenotypic HSCs (LSK48−150+) mobilized to the spleen: FIGS. 8A-B; for total number of phenotypic HSPCs in the bone marrow: Example 6: 20 mg/kg once daily 3 days + rhuG-CSF 125 μg/kg twice daily 4 days vs vehicle + G-CSF, FIGS. 6A-B; for increase in total number of HSPCs (LSK48+ and LSK) mobilized from the bone marrow / increase in total number of myeloid progenitors (LKS−) mobilized from the bone marrow / increase in total number of phenotypic HSCs (LSK48−150+) mobilized from the bone marrow: Example 6: blood and spleen, 20 mg/kg + G-CSF vs vehicle + G-CSF, FIGS. 9A-B; for total number of HSPCs (LSK48+ and LSK) mobilized blood and spleen / total number of phenotypic HSCs (LSK48−150+) mobilized blood and spleen: Example 8: 60 mg/kg + G-CSF vs vehicle + G-CSF, FIGS. 14A-B
Protocol: as §2, §1
The number of phenotypic hematopoietic stem and progenitor cells remaining in the bone marrow following treatment was measured by flow cytometry using antibodies specific for lineage markers (CD3, CD5, CD45R/B220, F4/80, Gr1, CD41, Ter119), Sca-1, Kit, CD48 and CD150. Similarly, the number of phenotypic hematopoietic stem cells mobilized into the blood and spleen were measured. Colony assays were also performed on blood and spleen to determine the number of colony forming cells per mL of blood and per spleen. All results are presented as mean f standard deviation with n=6 per groups. Levels of significance for differences were calculated using the Student's t-test.
All procedures were approved by the animal experimentation ethics committee of the University of Queensland. All experiments were performed on nine to twelve-week old C57BL/6 male mice or genetically modified mice back-crossed at least 10 times into C57BL/6. Recombinant human G-CSF (Amgen, Thousand Oaks, Calif.) was injected twice daily subcutaneously at 125 μg/kg per injection for up to 4 consecutive days. Plerixafor (AMD3100 octohydrochloride, Tocris Bioscience, Bristol, UK) was injected intraperitoneally as a single 16 mg/kg dose corresponding to 10 mg/kg of AMD3100 base. Tissues were harvested 1 h after Plerixafor administration. […] Compounds H and J were administered at 60 mg/kg and Compound K was administered at 100 mg/kg. Control mice were injected with an equivalent volume of saline. At specified time-points, mice were anesthetized with isoflurane before cardiac puncture to harvest blood. Mice were then euthanized by cervical dislocation and BM and bones harvested.
Following flushing with PBS plus 2% NCS, enriched central BM cells were pelleted at 370×g for 5 minutes at 4° C. and resuspended in CD16/CD32 hybridoma 2.4G2 supernatant to block IgGFc receptors. HSCs were stained with the biotinylated lineage antibody cocktail (CD3, CD5, B220, CD11b, Gr-1, Ter119) and biotinylated CD41 together with streptavidin (SAV)-Pacific Blue, anti-Sca-1-PECY7, anti-KIT-APC, CD48-FITC and CD150-PE as previously described (17). Data were acquired on a CyAn (Dako Cytomation) flow cytometer and analyzed following compensation with single color controls using FlowJo software (Tree Star, Ashland, Oreg.).

[4] = Example 6: 20 mg/kg + G-CSF vs vehicle + G-CSF, FIG. 11
[5] = Example 6: 20 mg/kg + G-CSF vs vehicle + G-CSF, FIG. 10
[6] = Example 7: 20 mg/kg + G-CSF vs vehicle + G-CSF, FIGS. 12A-B
[7] = + G-CSF vs vehicle + G-CSF, FIG. 15
[8] = Example 8: H and J 60 mg/kg, K 100 mg/kg, + G-CSF vs vehicle + G-CSF

Row | SMILES | increase in spleen weight [1, 4] | number of white blood cells per mL of blood (white blood cells) | number of colony forming units mobilized to the blood [2, 5] | mobilization of myeloid progenitors (LKS−) to the blood [3] | increase in mobilization of myeloid progenitors (LKS−) to the spleen [3] | increase in number of HSPCs (LSK48+ and LSK) mobilized to the spleen [3] | increase in number of phenotypic HSCs (LSK48−150+) mobilized to the spleen [3] | total number of phenotypic HSPCs in the bone marrow [3] | increase in total number of HSPCs (LSK48+ and LSK) mobilized from the bone marrow [3] | increase in total number of myeloid progenitors (LKS−) mobilized from the bone marrow [3] | increase in total number of phenotypic HSCs (LSK48−150+) mobilized from the bone marrow [3] | number of colony forming units mobilized to the spleen [2, 7] | total number (blood and spleen) of mobilized CFUs [2, 7] | total number of HSPCs (LSK48+ and LSK) mobilized blood and spleen [3] | total number of phenotypic HSCs (LSK48−150+) mobilized blood and spleen [3] | total number of HSCs and progenitors in the BM [3, 8] | other results
1 | N#Cc1nc(C(=O)NCC(=O)O)c(O)c2c(Oc3ccc(Cl)cc3)cccc12 [Compound A, {[5-(4-Chloro-phenoxy)-1-cyano-4-hydroxy-isoquinoline-3-carbonyl]-amino}-acetic acid] | approximately 2 fold | significant increase | significantly increased | did not significantly alter | approximately 3 fold | approximately 2 fold | approximately 2 fold | did not significantly alter | approximately 2 fold | approximately 6 fold | approximately 2 fold | – | – | – | – | – | –
2 | N#Cc1nc(C(=O)NCC(=O)O)c(O)c2c(Oc3ccccc3)cccc12 [Compound B, [(1-Cyano-4-hydroxy-5-phenoxy-isoquinoline-3-carbonyl)-amino]-acetic acid] | approximately 2 fold | significant increase | no significant change | did not significantly alter | approximately 3 fold | approximately 2 fold | approximately 2 fold | did not significantly alter | approximately 2 fold | approximately 6 fold | approximately 2 fold | – | – | – | – | – | number of CFUs mobilized to the spleen [2, 5]: statistically significant; total number of CFUs mobilized, relative to Compound A or Compound C with G-CSF ([2]; Example 6: 20 mg/kg + G-CSF, FIG. 10): comparable
3 | O=c1c(-n2ccnn2)c[nH]n1-c1cc(N2CCOCC2)ncn1 [Compound F, 2-(6-Morpholin-4-yl-pyrimidin-4-yl)-4-[1,2,3]triazol-1-yl-1,2-dihydro-pyrazol-3-one] | – | – | – | – | – | – | – | – | – | – | – | – | – | – | – | – | increase in spleen weight ([1]; Example 7: D 60 mg/kg, E and F 20 mg/kg, + G-CSF vs vehicle + G-CSF): approximately 2 fold; number of CFUs mobilized from the bone marrow to the blood and spleen ([2]; Example 7: D 60 mg/kg, E and F 20 mg/kg, + G-CSF vs vehicle + G-CSF, FIG. 13): significantly increased; total number of HSCs (LSK48-150+) mobilized from the bone marrow [3, 6]: significant increase; total number of HSPCs (LSK48+ and LSK) mobilized from the bone marrow [3, 6]: significant increase; total number of HSCs and progenitors in the BM ([3]; Example 7: Compound D 60 mg/kg, E and F 20 mg/kg, + G-CSF vs vehicle + G-CSF): did not significantly alter; total number of myeloid progenitors (LKS−) mobilized ([3]; Example 7: D 60 mg/kg, E and F 20 mg/kg, + G-CSF vs vehicle + G-CSF, FIGS. 12A-B): significant increase
4 | O=C(O)CNC(=O)c1ncc2cc(Oc3ccccc3)ccc2c1O [Compound H, [(4-Hydroxy-7-phenoxy-isoquinoline-3-carbonyl)-amino]-acetic acid] | – | – | – | – | – | – | – | – | – | – | – | significant increase | significant increase | significant increase | significant increase | did not significantly alter | –
5 | COc1ccc(Oc2ccc3c(O)c(C(=O)NCC(=O)O)ncc3c2)cc1 [Compound J, {[4-Hydroxy-7-(4-methoxy-phenoxy)-isoquinoline-3-carbonyl]-amino}-acetic acid] | – | – | – | – | – | – | – | – | – | – | – | significant increase | significant increase | significant increase | significant increase | did not significantly alter | number of colony forming units mobilized to the blood ([2]; Example 8: 60 mg/kg + G-CSF vs vehicle control, FIG. 15): significant increase
6 | O=C(O)CNC(=O)c1ncc(-c2cccc(F)c2)cc1O [Compound K, {[5-(3-Fluoro-phenyl)-3-hydroxy-pyridine-2-carbonyl]-amino}-acetic acid] | – | – | – | – | – | – | – | – | – | – | – | no significant change | no significant change | – | – | did not significantly alter | –
